Reference: the supplement of paper PMC10307832

What was measured:
Test in all cases: relative viability (nuclei count vs DMSO), 5 days (fraction); higher = more cells survive
[1] = system: A-427
How it was run: (§1)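 Relative viability divides the nuclei count in treated wells by that in vehicle wells. Lung cancer cell lines were seeded in 1536-well plates, dosed by pin tool the next day, and fixed and stained after 5 days in one step with final 0.05% Triton X-100, 1% formaldehyde and 1 ug/ml Hoechst. Dosing was a single drug or a fixed anchor-drug dose plus five library-drug doses (not always all listed) in √10 steps, and values are medians of duplicate plates imaged at 4×.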

[2] = system: BEN
How it was run: as §1

[3] = system: CAL-12T
How it was run: as §1

[4] = system: COR-L 105
How it was run: as §1

[5] = system: ChaGo-K-1
How it was run: as §1

[6] = system: EPLC-272H
How it was run: as §1

[7] = system: HOP-62
How it was run: as §1

[8] = system: LCLC-103H
How it was run: as §1

[9] = system: LU99A
How it was run: as §1

[10] = system: LXF-289
How it was run: as §1

[11] = system: NCI-H1395
How it was run: as §1

[12] = system: NCI-H1650
How it was run: as §1

[13] = system: NCI-H1666
How it was run: as §1

[14] = system: NCI-H1793
How it was run: as §1

[15] = system: NCI-H1975
How it was run: as §1

[16] = system: NCI-H1993
How it was run: as §1

[17] = system: NCI-H2009
How it was run: as §1

[18] = system: NCI-H2342
How it was run: as §1

[19] = system: NCI-H2347
How it was run: as §1

[20] = system: NCI-H358
How it was run: as §1

[21] = system: NCI-H441
How it was run: as §1

[22] = system: NCI-H460
How it was run: as §1

[23] = system: NCI-H650
How it was run: as §1

[24] = system: NCI-H727
How it was run: as §1

[25] = system: SK-MES-1
How it was run: as §1

Compound: Nc1cccc2c1CN(C1CCC(=O)NC1=O)C2=O (stereo unspecified) [Lenalidomide] + CCNC(=O)c1noc(-c2cc(C(C)C)c(O)cc2O)c1-c1ccc(CN2CCOCC2)cc1 [Luminespib] (partner 0.01 µM)
- relative viability ([1]; first compound 0.253 µM): 0.807
- relative viability ([1]; first compound 0.8 µM): 1
- relative viability ([1]; first compound 2.53 µM): 0.914
- relative viability ([1]; first compound 8 µM): 1.01
- relative viability ([2]; first compound 0.253 µM): 0.427
- relative viability ([2]; first compound 0.8 µM): 0.233
- relative viability ([2]; first compound 2.53 µM): 0.607
- relative viability ([2]; first compound 8 µM): 0.246
- relative viability ([3]; first compound 0.253 µM): 0.341
- relative viability ([3]; first compound 0.8 µM): 0.245
- relative viability ([3]; first compound 2.53 µM): 0.259
- relative viability ([3]; first compound 8 µM): 0.479
- relative viability ([4]; first compound 0.253 µM): 0.891
- relative viability ([4]; first compound 0.8 µM): 0.574
- relative viability ([4]; first compound 2.53 µM): 0.836
- relative viability ([4]; first compound 8 µM): 0.994
- relative viability ([5]; first compound 0.253 µM): 0.649
- relative viability ([5]; first compound 0.8 µM): 0.506
- relative viability ([5]; first compound 2.53 µM): 0.788
- relative viability ([5]; first compound 8 µM): 0.541
- relative viability ([6]; first compound 0.253 µM): 0.341
- relative viability ([6]; first compound 0.8 µM): 0.259
- relative viability ([6]; first compound 2.53 µM): 0.276
- relative viability ([6]; first compound 8 µM): 0.204
- relative viability ([7]; first compound 0.253 µM): 0.961
- relative viability ([7]; first compound 0.8 µM): 0.843
- relative viability ([7]; first compound 2.53 µM): 0.899
- relative viability ([7]; first compound 8 µM): 0.938
- relative viability ([8]; first compound 0.253 µM): 1.02
- relative viability ([8]; first compound 0.8 µM): 0.958
- relative viability ([8]; first compound 2.53 µM): 1.17
- relative viability ([8]; first compound 8 µM): 0.922
- relative viability ([9]; first compound 0.253 µM): 0.236
- relative viability ([9]; first compound 0.8 µM): 0.249
- relative viability ([9]; first compound 2.53 µM): 0.258
- relative viability ([9]; first compound 8 µM): 0.258
- relative viability ([10]; first compound 0.253 µM): 0.799
- relative viability ([10]; first compound 0.8 µM): 0.686
- relative viability ([10]; first compound 2.53 µM): 0.768
- relative viability ([10]; first compound 8 µM): 0.725
- relative viability ([11]; first compound 0.253 µM): 0.796
- relative viability ([11]; first compound 0.8 µM): 0.72
- relative viability ([11]; first compound 2.53 µM): 0.855
- relative viability ([11]; first compound 8 µM): 0.615
- relative viability ([12]; first compound 0.8 µM): 0.197
- relative viability ([12]; first compound 2.53 µM): 0.196
- relative viability ([12]; first compound 8 µM): 0.202
- relative viability ([13]; first compound 0.253 µM): 0.977
- relative viability ([13]; first compound 2.53 µM): 1.02
- relative viability ([13]; first compound 8 µM): 1.04
- relative viability ([14]; first compound 0.253 µM): 0.173
- relative viability ([14]; first compound 2.53 µM): 0.167
- relative viability ([14]; first compound 8 µM): 0.165
- relative viability ([15]; first compound 0.253 µM): 0.194
- relative viability ([15]; first compound 0.8 µM): 0.235
- relative viability ([15]; first compound 2.53 µM): 0.251
- relative viability ([15]; first compound 8 µM): 0.196
- relative viability ([16]; first compound 0.253 µM): 0.66
- relative viability ([16]; first compound 0.8 µM): 0.726
- relative viability ([16]; first compound 2.53 µM): 0.767
- relative viability ([16]; first compound 8 µM): 0.743
- relative viability ([17]; first compound 0.253 µM): 1.04
- relative viability ([17]; first compound 0.8 µM): 0.99
- relative viability ([17]; first compound 2.53 µM): 1.09
- relative viability ([17]; first compound 8 µM): 1.11
- relative viability ([18]; first compound 0.253 µM): 0.706
- relative viability ([18]; first compound 0.8 µM): 0.744
- relative viability ([18]; first compound 2.53 µM): 0.806
- relative viability ([18]; first compound 8 µM): 0.56
- relative viability ([19]; first compound 0.253 µM): 0.507
- relative viability ([19]; first compound 0.8 µM): 0.627
- relative viability ([19]; first compound 2.53 µM): 0.454
- relative viability ([19]; first compound 8 µM): 0.249
- relative viability ([20]; first compound 0.253 µM): 0.419
- relative viability ([20]; first compound 0.8 µM): 0.377
- relative viability ([20]; first compound 2.53 µM): 0.437
- relative viability ([20]; first compound 8 µM): 0.576
- relative viability ([21]; first compound 0.253 µM): 0.293
- relative viability ([21]; first compound 0.8 µM): 0.388
- relative viability ([21]; first compound 2.53 µM): 0.307
- relative viability ([21]; first compound 8 µM): 0.285
- relative viability ([22]; first compound 0.253 µM): 0.0318
- relative viability ([22]; first compound 0.8 µM): 0.0303
- relative viability ([22]; first compound 2.53 µM): 0.035
- relative viability ([22]; first compound 8 µM): 0.0323
- relative viability ([23]; first compound 0.253 µM): 0.905
- relative viability ([23]; first compound 2.53 µM): 0.831
- relative viability ([23]; first compound 8 µM): 0.823
- relative viability ([24]; first compound 0.253 µM): 0.45
- relative viability ([24]; first compound 0.8 µM): 0.316
- relative viability ([24]; first compound 2.53 µM): 0.473
- relative viability ([24]; first compound 8 µM): 0.477
- relative viability ([25]; first compound 0.253 µM): 0.777
- relative viability ([25]; first compound 0.8 µM): 0.891
- relative viability ([25]; first compound 2.53 µM): 0.886
- relative viability ([25]; first compound 8 µM): 0.863
